The values below come from paper PMC11678491, “Bis-Iridoid Glycosides and Triterpenoids from Kolkwitzia amabilis and Their Potential as Inhibitors of ACC1 and ACL” (Molecules, 2024).

The target of experiment [1] is T1, ATP-citrate lyase (ACL) (Homo sapiens, UniProt P53396).
T1 sequence (P53396 1-1101): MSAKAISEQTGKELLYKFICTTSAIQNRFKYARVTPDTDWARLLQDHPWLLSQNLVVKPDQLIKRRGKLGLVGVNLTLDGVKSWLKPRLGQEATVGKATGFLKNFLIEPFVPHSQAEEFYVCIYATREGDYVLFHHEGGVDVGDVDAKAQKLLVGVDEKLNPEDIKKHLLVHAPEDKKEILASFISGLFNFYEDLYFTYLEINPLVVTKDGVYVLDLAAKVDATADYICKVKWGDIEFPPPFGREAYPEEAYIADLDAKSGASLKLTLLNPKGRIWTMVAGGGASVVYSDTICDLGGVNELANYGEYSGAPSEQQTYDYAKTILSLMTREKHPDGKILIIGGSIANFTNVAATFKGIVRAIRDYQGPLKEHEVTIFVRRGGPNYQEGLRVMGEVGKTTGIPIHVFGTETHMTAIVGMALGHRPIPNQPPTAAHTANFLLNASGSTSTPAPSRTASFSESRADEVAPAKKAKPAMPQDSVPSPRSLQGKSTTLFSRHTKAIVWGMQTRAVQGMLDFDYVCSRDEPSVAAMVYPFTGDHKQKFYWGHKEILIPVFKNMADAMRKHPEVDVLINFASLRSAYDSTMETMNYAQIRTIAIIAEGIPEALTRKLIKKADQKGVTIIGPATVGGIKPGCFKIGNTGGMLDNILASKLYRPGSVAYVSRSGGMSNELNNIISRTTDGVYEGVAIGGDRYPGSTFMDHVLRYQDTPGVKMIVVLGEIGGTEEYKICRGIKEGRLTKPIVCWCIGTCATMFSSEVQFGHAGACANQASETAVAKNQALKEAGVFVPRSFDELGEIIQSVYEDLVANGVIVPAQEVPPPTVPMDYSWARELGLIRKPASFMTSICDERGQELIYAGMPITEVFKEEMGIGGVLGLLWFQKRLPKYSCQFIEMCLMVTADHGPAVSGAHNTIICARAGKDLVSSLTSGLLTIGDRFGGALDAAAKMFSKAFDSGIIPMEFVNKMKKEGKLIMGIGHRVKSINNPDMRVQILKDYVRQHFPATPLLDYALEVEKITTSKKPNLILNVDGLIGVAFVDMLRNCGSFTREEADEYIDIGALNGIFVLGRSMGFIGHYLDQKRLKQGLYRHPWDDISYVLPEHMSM
The experiment is described as follows: ACL inhibitory assay (ADP-Glo luminescence). The class given is biochemical. The procedure:
(§1) The ACC1 and ACL inhibitory activity assay were conducted using ADP-Glo^TM luminescence assay reagents (Promega Biotech Co., Ltd, Beijing, China), which measure ACC1 or ACL activity by quantifying the amount of ADP generated in the enzymatic reaction. […] Reactions were conducted in each well for 30 min at room temperature. Following this, 2.0 μL of ATP was added to each well, and the mixture was incubated for 1 h at room temperature. Negative control wells, which lacked the protein kinase, substrate, and ATP, were also included in the kinase assay. After the enzymatic reaction, 2.5 μL of ADP-Glo reagent was added to each well to terminate the kinase reaction and deplete any unconsumed ATP within 1 h at room temperature. Finally, 5.0 μL of kinase detection reagent was added to each well and incubated for 1 h to convert ADP to ATP. The luminescence signal was measured using a PerkinElmer EnVision reader.
Background: ADP-Glo first removes unused ATP, then detects ADP through luciferase.

Experiment [2] deals with acetyl CoA carboxylase 1 (ACC1) (Homo sapiens, UniProt Q13085). The experiment is described as follows: ACC1 inhibitory assay (ADP-Glo luminescence). The class given is biochemical. As to the method:
as §1

Setting [3] is: mean ± SEM of triplicated experiments.
Where [4] appears, read: Figure 5, mean ± standard deviation (SD) (n = 3), read-out: IC50 (ACC1).
Setting [5] is: mean ± SEM of triplicated experiments, read-out: IC50 ACC1.
Setting [6] is: Figure 5, mean ± standard deviation (SD) (n = 3).

Like-named read-outs stand apart in the source and are kept apart here.

Regarding `COc1ccc(-c2ccccc2)cc1NS(=O)(=O)c1cc(Cl)cc(Cl)c1O` [BMS 303141, reference compound], in experiment [1] (setting [3]), the IC50 was 0.3 ± 0.1 µM.

Turning to `CC(=O)O[C@H]1CC[C@]2(C)[C@H]3CC=C4[C@@H]5[C@@H](C)[C@H](C)CC[C@]5(C(=O)O)CC[C@@]4(C)[C@]3(C)CC[C@H]2C1(C)C` [Compound 17, 3β-acetyl-ursolic acid], the IC50 in experiment [2] (setting [4]) amounted to 10.3 ± 0.78 µM; in experiment [2] (setting [5]), 10.3 ± 0.8 µM; in experiment [1] (setting [3]) it was 2 ± 0.5 µM.

In the case of `C=C[C@H]1[C@H](O[C@@H]2O[C@H](CO)[C@@H](O)[C@H](O)[C@H]2O)OC=C(C(=O)O[C@H]2C[C@@H]3C(C(=O)OC)=CO[C@@H](O)[C@@H]3[C@@H]2C)[C@H]1CC(OC)OC` [Compound 8, lonicejaposide C], the IC50 in experiment [2] (setting [5]) is > 20 µM; in experiment [1] (setting [6]), 3.63 ± 0.91 µM; in experiment [1] (setting [3]) it was 3.6 ± 0.9 µM.

As to `COc1ccccc1[C@H](Cn1c(=O)n(C(C)(C)C(=O)O)c(=O)c2c(C)c(-c3ncco3)sc21)OC1CCOCC1` [ND 630, Firsocostat, reference compound], in experiment [2], the midpoint of inhibition, the IC50, lay at 0.002 ± 0.0001 µM.

`CC1(C)CC[C@]2(C(=O)O)CC[C@]3(C)C(=CC[C@@H]4[C@@]5(C)CC[C@H](O)[C@@](C)(COC(=O)/C=C/c6ccc(O)cc6)[C@@H]5CC[C@]43C)[C@@H]2C1` [Compound 31, (23E)-coumaroylhederagenin]: the concentration for half-maximal inhibition (IC50) in experiment [2] (setting [5]) was > 20 µM; in experiment [1] (setting [6]), 4.69 ± 1.3 µM; in experiment [1] (setting [3]) it was 4.7 ± 1.3 µM.

On to `C=C[C@H]1[C@H](O[C@@H]2O[C@H](CO)[C@@H](O)[C@H](O)[C@H]2O)OC=C(C(=O)O[C@H]2C[C@@H]3C(C(=O)OC)=CO[C@@H](O[C@@H]4O[C@H](CO)[C@@H](O)[C@H](OC(=O)/C=C/c5ccc(O)c(O)c5)[C@H]4O)[C@@H]3[C@@H]2C)[C@H]1CC(OC)OC` [Compound 2, Amabilioside B], for which the IC50 turned out to be 9.64 ± 0.99 µM in experiment [2] (setting [4]) and 9.6 ± 1 µM in experiment [2] (setting [5]).

Broadly, the IC50 is the concentration at which inhibition is half-maximal.
